From patent US20180055844A1 (Celgene Corporation, priority 2011, published 2018)
Where two headings read alike, the source gives them in different places.

How the values were obtained:
[1] = test system: TNFα; experiment: LPS-induced TNFα; format: cell-based
[2] = test system: B cell; experiment: B cell proliferation; format: cell-based
[3] = test system: megakaryocyte progenitor cells; experiment: MK colonies (megakaryocyte progenitor cells); format: cell-based
[4] = test system: HUVEC; experiment: HUVEC proliferation; format: cell-based, human
[5] = test system: blood vessel growth; experiment: Mouse Matrigel angiogenesis assay; format: in vivo; details: 30 mpk
[6] = test system: 1051; experiment: Activity against lenalidomide resistant cell lines; format: cell-based; details: 1051, n = 3; read-out: IC50
Procedure: (§1) The ability of compounds to effect the proliferation of MM cell lines was investigated in an in vitro study. Uptake of [^3H]-thymidine by H929 MM cells and 7-AAD uptake in several MM cell lines (H929, U266B1, Anbl-6, KMS-34, OPM-2, DF-15, DF15/R, CAG, MM1.S and LP-1) was measured as an indicator of cell proliferation. Cells were incubated in the presence of compounds for 72 hours ([^3H]-thymidine was included for the last 6 hours of the incubation period) or 5 days followed by 7-AAD uptake to measure and count viable cells.

[7] = test system: 1052; experiment: Activity against lenalidomide resistant cell lines; format: cell-based; details: 1052, n = 3; read-out: IC50
Procedure: as §1

[8] = test system: 1053; experiment: Activity against lenalidomide resistant cell lines; format: cell-based; details: 1053, n = 3; read-out: IC50
Procedure: as §1

[9] = test system: 1054; experiment: Activity against lenalidomide resistant cell lines; format: cell-based; details: 1054, n = 3; read-out: IC50
Procedure: as §1

[10] = test system: D1; experiment: Activity against lenalidomide resistant cell lines; format: cell-based; details: D1, n = 3; read-out: IC50
Procedure: as §1

[11] = test system: H929; experiment: Activity against lenalidomide resistant cell lines; format: cell-based; details: Homo sapiens, NCI-H929; H929, n = 3
Procedure: as §1

[12] = test system: HIF-1α; experiment: HIF-1α protein expression in solid tumor cell lines; format: cell-based; details: 1 μM
[13] = Stability in human plasma; format: in vitro ADME; details: read-out: t1/2 in human plasma
[14] = Oral administration for 7 consecutive days in rat; set-up: species or system male CD-IGS rat; details: in vivo
Procedure: The NOAEL was determined to be 1000 mg/kg/day.

[15] = test system: NFκB p65 and p50; experiment: NFκB activity in DLBCL cells (Active Motif transcription factor assay); format: cell-based; details: 0.1 μM, 1 μM and 10 μM, 2 days
From the text: NF-κB activity was examined with Active Motif transcription factor assay using nuclear extracts from cells following treatment.

[16] = test system: U87; experiment: Invasion of solid tumor cells; format: cell-based; details: Homo sapiens, U-87 MG; U87 (PDGF), glioblastoma
[17] = test system: HCT15; experiment: Invasion of solid tumor cells; format: cell-based
[18] = test system: SK-HEP-1; experiment: Solid tumor cell colony formation; format: cell-based; details: Homo sapiens, SK-HEP1
[19] = test system: HEP-G2; experiment: Solid tumor cell colony formation; format: cell-based; details: Homo sapiens, HepG2
[20] = test system: SF295; experiment: Solid tumor cell colony formation; format: cell-based; details: Homo sapiens, SF-295
[21] = test system: U251; experiment: Solid tumor cell colony formation; format: cell-based; details: Homo sapiens, U-251
[22] = test system: U87; experiment: Solid tumor cell colony formation; format: cell-based; details: Homo sapiens, U-87 MG
[23] = test system: MDA-MB-453; experiment: Solid tumor cell colony formation; format: cell-based; details: Homo sapiens
[24] = test system: MCF-7; experiment: Solid tumor cell colony formation; format: cell-based; details: Homo sapiens, MCF7
[25] = test system: ZR-75-1; experiment: Solid tumor cell colony formation; format: cell-based; details: Homo sapiens
[26] = test system: lipopolysaccharide-stimulated human peripheral blood mononuclear cells (hPBMCs); experiment: PBMC cytokine profiling; format: cell-based; details: for IC50: LPS-stimulated hPBMC
[27] = test system: HUVEC; experiment: HUVEC tube formation; format: cell-based, human

Cc1nc2cccc(N)c2c(=O)n1C1CCC(=O)NC1=O (stereo not shown) [compound of Formula I, 3-(5-amino-2-methyl-4-oxo-4H-quinazolin-3-yl)-piperidine-2,6-dione]
IC50 [1]: 17 nM
EC50 [2]: 15 nM
inhibition of megakaryocyte progenitor cells ([3]; 10 μM): did not inhibit
IC50 ([3]; read-out: Immature MK colonies IC50): > 10000 nM
IC50 ([3]; read-out: Intermediate MK colonies IC50): > 10000 nM
HUVEC proliferation [4]: did not inhibit
growth factor-induced HUVEC proliferation ([4]; growth factor-induced): either enhanced or did not inhibit
blood vessel growth [5]: significantly inhibited
IC50 [6]: 2970 nM
IC50 [7]: 4240 nM
IC50 [8]: 2100 nM
IC50 [9]: 6590 nM
IC50 [10]: 309 nM
IC50 [11]: 154 nM
% Inhibition of HIF-1α protein expression ([12]; 786-O (renal cancer)): 41.70%
% Inhibition of HIF-1α protein expression ([12]; DU145 (prostate cancer)): 66.01%
% Inhibition of HIF-1α protein expression ([12]; HCT15 (colorectal cancer)): 69.26%
% Inhibition of HIF-1α protein expression ([12]; HCT116 (colorectal cancer)): 74.60%
% Inhibition of HIF-1α protein expression ([12]; HT29 (colorectal cancer)): 78.54%
% Inhibition of HIF-1α protein expression ([12]; MCF-7 (breast cancer)): 74.82%
% Inhibition of HIF-1α protein expression ([12]; Miapaca-3 (pancreatic cancer)): 33.72%
% Inhibition of HIF-1α protein expression ([12]; Ovcar-3 (ovarian cancer)): 63.39%
% Inhibition of HIF-1α protein expression ([12]; Skov-3 (ovarian cancer)): 100.00%
% Inhibition of HIF-1α protein expression ([12]; U87 (brain cancer)): 73.81%
half-life [13]: 3.83 h
NOAEL at 7 days ([14]; oral, 7 consecutive days, male CD-IGS rat): 1000 mg/kg/day
exposure versus dose ([14]; rat): near dose proportional exposure increases
NFκB p65 and p50 activity [15]: significantly inhibits
IC50 [16]: 80 nM
IC50 ([17]; Homo sapiens, HCT-15, HCT15 (bFGF), colorectal): 7.2 nM
ability to inhibit invasion of HCT-15 cells ([17]; with siCRBN): reduced
inhibition at 10 µM [18]: 6%
inhibition at 10 µM [19]: 6.9%
inhibition at 10 µM [20]: 12.9%
inhibition at 10 µM [21]: -6%
inhibition at 10 µM [22]: 2%
inhibition at 10 µM [23]: -7%
inhibition at 10 µM [24]: 1.4%
inhibition at 10 µM [25]: 90%
activity at 0.1 µM ([26]; read-out: IL-10 production, mean percent of control): 480%
activity at 0.1 µM ([26]; read-out: MCP-1 production, mean percent of control): 236%
activity at 0.1 µM ([26]; read-out: RANTES production, mean percent of control): 131%
IC50 ([26]; read-out: IL-8 production IC50): > 10000 nM
IC50 ([26]; read-out: MIP-1α production IC50): 300 nM
IC50 ([26]; read-out: MIP-1β production IC50): > 10000 nM
VEGF and bFGF-induced HUVEC tube formation and migration [27]: weakly inhibited
